Measurements: patent publication US4175081A, “5-Substituted thiadiazole ureas” (priority 1977, dated 1979)

Legend:
Barnyard grass (BG) [1] = assay: Post-emergence herbicide test; assay type: in vivo; conditions: Echinochloa crus-galli, 336 h, two weeks after treatment; for pest or weed control at 4483.4 g/ha: 4 lb/acre
Experimental: (§1) Barnyard grass (BG)--Echinochloa crus-galli
(§2) All crop and weed species were planted individually in 3' plastic pots containing potting soil. Four seeds each of corn, cotton, and snapbeans were seeded to a depth equal to the diameter of the seed. All other species were surface seeded and sprinkled with screened soil in an amount sufficient to cover the seed. Immediately after planting, all pots were watered by sub-irrigation in greenhouse trays. Pots for the pre-emergence phase were seeded one day before treatment.
(§3) Planting dates for the post-emergence phase were varied so that all seedlings would reach the desired stage of development simultaneously. The proper stage of seedling development for treatment in the post-emergence phase is as follows:
(§4) Compounds were tested at rates of application equivalent to 8 lbs. of actual compound per acre in a spray volume of 38 gallons per acre. Spray hood constants required to deliver the above volume are as follows:
(§5) Formulations for spray applications were prepared in 50 ml volumes with the following three components:
(§6) Formulations for the 4 lbs/acre rate were prepared by adjusting the amount of active ingredient accordingly.
(§7) Spray applications were made in a hood containing a removable belt and fixed spray nozzle. For passage through the spray hood, one pot of each specie (pre-emergence phase) was placed on the rear half of the flat. Treatments were removed to the greenhouse after spraying. Watering during the observation period was done only by sub-irrigation.
(§8) Two weeks after treatment, pre- and post-emergence injury or control was visually rated, and the results were as shown in the following tables. Pre-emergence data are provided in TABLE III and post-emergence data are provided in TABLE IV, for compounds having the formula illustrated in TABLE I. Correspondingly, pre-emergence and post-emergence data, respectively, are set forth in TABLES V AND VI, for compounds having the formula illustrated in TABLE II.

Johnson grass (JG) [2] = assay: Post-emergence herbicide test; assay type: in vivo, Sorgum helepense; conditions: Sorghum halepense, 336 h, two weeks after treatment; for pest or weed control at 4483.4 g/ha: 4 lb/acre
Experimental: (§9) Johnson grass (JG)--Sorgum helepense
as §2, §3, §4, §5, §6, §7, §8

Crabgrass (CG) [3] = assay: Post-emergence herbicide test; assay type: in vivo, Digitaria sanquinalis; conditions: Digitaria sanguinalis, post-emergence, 336 h, two weeks after treatment; for pest or weed control at 4483.4 g/ha: 4 lb/acre; for pest or weed control: 2 lb/acre
Experimental: (§10) Crabgrass (CG)--Digitaria sanquinalis
as §2, §3
(§11) Spray hood constants required to deliver the above volume are as follows:
(§12) Formulations for spray applications were prepared in 50 ml volumes with the following three components: […]
as §7, §8

Turnip (TP) [4] = assay: Post-emergence herbicide test; assay type: in vivo, Brassica sp.; conditions: Brassica rapa, post-emergence, 336 h, two weeks after treatment; for pest or weed control at 2241.7 g/ha: 2 lb/acre; for pest or weed control at 4483.4 g/ha: 4 lb/acre
Experimental: (§13) Turnip (TP)--Brassica sp.
as §2, §3
(§14) Pigweed and turnips: 1 or 2 true leaves above visible cotyledons.
as §11, §12, §7, §8

Bean (BN) [5] = assay: Post-emergence herbicide test; assay type: in vivo, Phaseolus vulgaris var. Black Valentine; conditions: Phaseolus vulgaris, post-emergence, 336 h, two weeks after treatment; for pest or weed control at 4483.4 g/ha: 4 lb/acre; for pest or weed control at 2241.7 g/ha: 2 lb/acre
Experimental: (§15) Bean (BN)--Phaseolus vulgaris var. Black Valentine
as §2, §3
Beans: primary leaves expanded, growing point at primary leaf nodes.
as §11, §5, §6, §7, §8

Cotton (CT) [6] = assay: Post-emergence herbicide test; assay type: in vivo, Gossypium hirsutum var. DPL smooth leaf; conditions: Gossypium hirsutum, post-emergence, 336 h, two weeks after treatment; for pest or weed control at 4483.4 g/ha: 4 lb/acre; for pest or weed control at 2241.7 g/ha: 2 lb/acre
Experimental: (§16) Cotton (CT)--Gossypium hirsutum var. DPL smooth leaf
as §2, §3
Cotton: first true leaf 1' in length; expanded cotyledons.
as §11, §5, §6, §7, §8

Amaranth pigweed (PW) [7] = assay: Post-emergence herbicide test; assay type: in vivo, Amaranthus retroflexus; conditions: 336 h, two weeks after treatment; for pest or weed control at 2241.7 g/ha: 2 lb/acre; for pest or weed control at 4483.4 g/ha: 4 lb/acre
Experimental: Amaranth pigweed (PW)--Amaranthus retroflexus
as §2, §3, §14, §4, §5, §6, §7, §8

Corn (CN) [8] = assay: Post-emergence herbicide test; assay type: in vivo; conditions: Zea mays, 336 h, two weeks after treatment; for pest or weed control at 4483.4 g/ha: 4 lb/acre; for pest or weed control: 2 lb/acre
Experimental: as §2, §3, §4, §5, §6, §7, §8

Barnyard grass (BG) [9] = assay: Pre-emergence herbicide test; assay type: in vivo; conditions: Echinochloa crus-galli, 336 h, two weeks after treatment; for pest or weed control at 4483.4 g/ha: 4 lb/acre
Experimental: as §1, §2, §4, §5, §6, §7, §8

Corn (CN) [10] = assay: Pre-emergence herbicide test; assay type: in vivo; conditions: Zea mays, 336 h, two weeks after treatment; for pest or weed control at 4483.4 g/ha: 4 lb/acre
Experimental: as §2, §4, §5, §6, §7, §8

Cotton (CT) [11] = assay: Pre-emergence herbicide test; assay type: in vivo, Gossypium hirsutum var. DPL smooth leaf; conditions: Gossypium hirsutum, 336 h, two weeks after treatment; for pest or weed control at 4483.4 g/ha: 4 lb/acre
Experimental: as §16, §2, §4, §5, §6, §7, §8

Johnson grass (JG) [12] = assay: Pre-emergence herbicide test; assay type: in vivo, Sorgum helepense; conditions: Sorghum halepense, 336 h, two weeks after treatment; for pest or weed control at 4483.4 g/ha: 4 lb/acre
Experimental: as §9, §2, §4, §5, §6, §7, §8

Bean (BN) [13] = assay: Pre-emergence herbicide test; assay type: in vivo, Phaseolus vulgaris var. Black Valentine; conditions: Phaseolus vulgaris, 336 h, two weeks after treatment
Experimental: as §15, §2, §4, §5, §6, §7, §8

Turnip (TP) [14] = assay: Pre-emergence herbicide test; assay type: in vivo, Brassica sp.; conditions: Brassica rapa, pre-emergence, 336 h, two weeks after treatment; for pest or weed control at 4483.4 g/ha: 4 lb/acre
Experimental: as §13, §2, §11, §12, §7, §8

Crabgrass (CG) [15] = assay: Pre-emergence herbicide test; assay type: in vivo, Digitaria sanquinalis; conditions: Digitaria sanguinalis, pre-emergence, 336 h, two weeks after treatment; for pest or weed control at 4483.4 g/ha: 4 lb/acre
Experimental: as §10, §2, §11, §12, §7, §8

Amaranth pigweed (PW) [16] = assay: Pre-emergence herbicide test; assay type: in vivo, Amaranthus retroflexus; conditions: 336 h, 4 lb/acre, two weeks after treatment
Experimental: as §2, §4, §5, §6, §7, §8

| Structure (SMILES) | pest or weed control at 4483.4 g/ha (Barnyard grass (BG) [1]) [%] | pest or weed control at 4483.4 g/ha (Johnson grass (JG) [2]) [%] | pest or weed control at 4483.4 g/ha (Crabgrass (CG) [3]) [%] | pest or weed control at 2241.7 g/ha (Turnip (TP) [4]) [%] | pest or weed control at 4483.4 g/ha (Turnip (TP) [4]) [%] | pest or weed control at 4483.4 g/ha (Bean (BN) [5]) [%] | pest or weed control at 4483.4 g/ha (Cotton (CT) [6]) [%] | pest or weed control at 2241.7 g/ha (Amaranth pigweed (PW) [7]) [%] | pest or weed control at 4483.4 g/ha (Amaranth pigweed (PW) [7]) [%] | pest or weed control at 4483.4 g/ha (Corn (CN) [8]) [%] | pest or weed control (Crabgrass (CG) [3]) [%] | pest or weed control at 2241.7 g/ha (Bean (BN) [5]) [%] | pest or weed control at 2241.7 g/ha (Cotton (CT) [6]) [%] | pest or weed control (Corn (CN) [8]) [%] | pest or weed control at 4483.4 g/ha (Barnyard grass (BG) [9]) [%] | pest or weed control at 4483.4 g/ha (Corn (CN) [10]) [%] | pest or weed control at 4483.4 g/ha (Cotton (CT) [11]) [%] | pest or weed control at 4483.4 g/ha (Johnson grass (JG) [12]) [%] | pest or weed control at 4483.4 g/ha (Turnip (TP) [14]) [%] | pest or weed control at 4483.4 g/ha (Crabgrass (CG) [15]) [%] | other results |
| --- | --- | --- | --- | --- | --- | --- | --- | --- | --- | --- | --- | --- | --- | --- | --- | --- | --- | --- | --- | --- | --- |
| CNC(=O)Nc1nnc(SCc2ccc([N+](=O)[O-])cc2)s1 [Example 55] | 20 | 30 | 40 | 60 | 90 | 100 | 50 | 90 | 90 | 20 |  |  |  |  |  |  |  |  |  |  |  |
| CNC(=O)Nc1nnc(SCC(=O)OC)s1 [Example 56] | 20 | 20 | 30 |  | 70 | 50 | 60 |  | 60 | 30 |  |  |  |  |  |  |  |  |  |  |  |
| CNC(=O)Nc1nnc(C(F)(F)Cl)s1 [Example 57] |  |  |  |  |  |  |  |  |  |  |  |  |  |  |  |  |  |  |  |  | pest or weed control at 8966.8 g/ha (Barnyard grass (BG) [1]; 8 lb/acre): 40%; pest or weed control at 8966.8 g/ha (Johnson grass (JG) [2]; 8 lb/acre): 40%; pest or weed control at 8966.8 g/ha (Crabgrass (CG) [3]; 8 lb/acre): 60%; pest or weed control at 8966.8 g/ha (Turnip (TP) [4]; 8 lb/acre): 100%; pest or weed control at 8966.8 g/ha (Bean (BN) [5]; 8 lb/acre): 100%; pest or weed control at 8966.8 g/ha (Cotton (CT) [6]; 8 lb/acre): 90%; pest or weed control at 8966.8 g/ha (Amaranth pigweed (PW) [7]; 8 lb/acre): 90%; pest or weed control at 8966.8 g/ha (Corn (CN) [8]; 8 lb/acre): 40% |
| CNC(=O)Nc1nnc(SCCCCl)s1 [Example 61] | 70 | 60 | 90 | 100 | 80 | 100 | 100 | 90 | 90 | 30 | 20 | 100 | 100 | 40 |  |  |  |  |  |  | pest or weed control at 2241.7 g/ha (Barnyard grass (BG) [1]; 2 lb/acre): 40%; pest or weed control (Johnson grass (JG) [2]; 2 lb/acre): 20% |
| CCS(=O)(=O)c1nnc(NC(=O)NC)s1 [Example 81] | 80 | 100 | 100 | 100 | 100 | 100 | 100 |  |  | 50 | 100 | 100 | 90 | 100 | 60 | 0 | 100 | 40 | 80 | 90 | pest or weed control at 2241.7 g/ha (Barnyard grass (BG) [9]; 2 lb/acre): 60%; pest or weed control at 2241.7 g/ha (Corn (CN) [10]; 2 lb/acre): 0%; pest or weed control at 2241.7 g/ha (Cotton (CT) [11]; 2 lb/acre): 100%; pest or weed control at 2241.7 g/ha (Johnson grass (JG) [12]; 2 lb/acre): 40%; pest or weed control at 2241.7 g/ha (Bean (BN) [13]; 2 lb/acre): 60%; pest or weed control at 4483.4 g/ha (Bean (BN) [13]; 4 lb/acre): 60%; pest or weed control at 2241.7 g/ha (Turnip (TP) [14]; 2 lb/acre): 80%; pest or weed control (Crabgrass (CG) [15]; 2 lb/acre): 90% |
| CCCC(C)c1nnc(NC(=O)NC)s1 (stereo not shown) [Example 83] |  |  | 10 |  | 90 | 40 | 10 |  |  |  |  |  |  |  | 50 | 10 | 10 | 60 | 10 | 90 | pest or weed control at 4483.4 g/ha (Amaranth pigweed (PW) [16]): 80% |
